According to PMC7714403 (JCI Insight, 2020):
Like-named read-outs stand apart in the source and are kept apart here.

How the values were obtained:
Assay in all cases: KiNativ, MOLM13 live cells
Assay type in all cases: cell-based
MLKL = biological target: T1, MLKL (Homo sapiens, UniProt Q8NB16); settings: MOLM-13, 2 h, 100 nM
T1 sequence (Q8NB16 1-471): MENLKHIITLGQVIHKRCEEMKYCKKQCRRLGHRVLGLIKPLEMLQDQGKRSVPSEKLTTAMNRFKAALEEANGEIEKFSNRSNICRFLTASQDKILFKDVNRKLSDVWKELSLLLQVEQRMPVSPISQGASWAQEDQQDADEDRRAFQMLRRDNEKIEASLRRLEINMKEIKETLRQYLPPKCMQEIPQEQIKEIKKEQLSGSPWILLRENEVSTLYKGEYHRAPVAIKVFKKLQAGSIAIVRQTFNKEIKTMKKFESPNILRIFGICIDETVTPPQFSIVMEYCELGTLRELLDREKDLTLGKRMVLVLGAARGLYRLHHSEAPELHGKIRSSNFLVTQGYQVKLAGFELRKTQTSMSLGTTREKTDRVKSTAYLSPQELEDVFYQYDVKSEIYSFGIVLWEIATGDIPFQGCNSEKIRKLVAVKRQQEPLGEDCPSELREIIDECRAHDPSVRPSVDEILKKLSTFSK
Procedure: (§1) Samples were analyzed by KiNativ in situ kinase profiling by ActivX Biosciences.

NEK3 = NEK3 (Homo sapiens, UniProt P51956); settings: MOLM-13; 100 nM, 2 hours; Activation Loop; read-out: Inhibition vs DMSO
Procedure: as §1

CDK2 = CDK2 (Homo sapiens, UniProt P24941); settings: 100 nM, 2 hours
Procedure: as §1

MST2 = MST2 (Homo sapiens, UniProt Q13188); settings: MOLM-13; 100 nM, 2 hours; Lys1; read-out: Inhibition vs DMSO
Procedure: as §1

MAP3K3 = MAP3K3 (Homo sapiens, UniProt Q99759); settings: MOLM-13; 100 nM, 2 hours; Lys1; read-out: Inhibition vs DMSO
Procedure: as §1

PLK1 = PLK1 (Homo sapiens, UniProt P53350); settings: MOLM-13, 2 h, 100 nM
Procedure: as §1

BTK = BTK (Homo sapiens, UniProt Q06187); settings: 100 nM, 2 hours; Activation Loop
Procedure: as §1

LATS2 = biological target: T2, LATS2 (Homo sapiens, UniProt Q9NRM7); settings: 100 nM, 2 hours
T2 sequence (Q9NRM7 1-1088): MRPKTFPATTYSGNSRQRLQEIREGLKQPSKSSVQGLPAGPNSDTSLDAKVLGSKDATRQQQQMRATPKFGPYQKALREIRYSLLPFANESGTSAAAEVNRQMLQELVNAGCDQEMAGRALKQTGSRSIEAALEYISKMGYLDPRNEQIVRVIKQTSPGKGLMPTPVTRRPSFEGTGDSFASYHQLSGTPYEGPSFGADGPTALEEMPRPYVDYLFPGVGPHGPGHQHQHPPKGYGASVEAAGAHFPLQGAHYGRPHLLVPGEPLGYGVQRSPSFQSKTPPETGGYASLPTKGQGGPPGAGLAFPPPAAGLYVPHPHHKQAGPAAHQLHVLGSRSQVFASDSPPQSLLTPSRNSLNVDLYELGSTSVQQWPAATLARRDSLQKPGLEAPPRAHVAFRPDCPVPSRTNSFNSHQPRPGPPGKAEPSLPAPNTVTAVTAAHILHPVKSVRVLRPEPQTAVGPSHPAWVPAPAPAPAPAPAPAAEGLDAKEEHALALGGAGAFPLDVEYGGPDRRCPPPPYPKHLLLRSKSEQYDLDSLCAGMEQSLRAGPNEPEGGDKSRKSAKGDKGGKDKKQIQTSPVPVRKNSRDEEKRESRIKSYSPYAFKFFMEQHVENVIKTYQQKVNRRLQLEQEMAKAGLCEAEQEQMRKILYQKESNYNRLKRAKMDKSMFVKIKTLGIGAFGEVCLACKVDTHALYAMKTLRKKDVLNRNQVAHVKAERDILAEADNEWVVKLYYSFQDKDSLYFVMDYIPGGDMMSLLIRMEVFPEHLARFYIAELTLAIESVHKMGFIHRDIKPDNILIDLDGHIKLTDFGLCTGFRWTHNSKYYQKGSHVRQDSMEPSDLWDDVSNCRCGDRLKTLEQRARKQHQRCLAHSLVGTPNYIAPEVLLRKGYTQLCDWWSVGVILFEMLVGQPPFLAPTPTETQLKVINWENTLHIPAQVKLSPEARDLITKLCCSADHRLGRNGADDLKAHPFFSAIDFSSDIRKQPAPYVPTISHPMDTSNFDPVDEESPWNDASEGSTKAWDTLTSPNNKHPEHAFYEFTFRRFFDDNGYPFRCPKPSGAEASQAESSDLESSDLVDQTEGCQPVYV
Procedure: as §1

MSK2 domain1 = biological target: T3, MSK2 domain1 (Homo sapiens, UniProt O75676); settings: MOLM-13, 2 h, 100 nM
T3 construct: MSK2 domain1
Procedure: as §1

[1] = Lys1, read-out: Inhibition vs DMSO
[2] = Lys2, read-out: Inhibition vs DMSO

PLK1, sequence (P53350 whole entry): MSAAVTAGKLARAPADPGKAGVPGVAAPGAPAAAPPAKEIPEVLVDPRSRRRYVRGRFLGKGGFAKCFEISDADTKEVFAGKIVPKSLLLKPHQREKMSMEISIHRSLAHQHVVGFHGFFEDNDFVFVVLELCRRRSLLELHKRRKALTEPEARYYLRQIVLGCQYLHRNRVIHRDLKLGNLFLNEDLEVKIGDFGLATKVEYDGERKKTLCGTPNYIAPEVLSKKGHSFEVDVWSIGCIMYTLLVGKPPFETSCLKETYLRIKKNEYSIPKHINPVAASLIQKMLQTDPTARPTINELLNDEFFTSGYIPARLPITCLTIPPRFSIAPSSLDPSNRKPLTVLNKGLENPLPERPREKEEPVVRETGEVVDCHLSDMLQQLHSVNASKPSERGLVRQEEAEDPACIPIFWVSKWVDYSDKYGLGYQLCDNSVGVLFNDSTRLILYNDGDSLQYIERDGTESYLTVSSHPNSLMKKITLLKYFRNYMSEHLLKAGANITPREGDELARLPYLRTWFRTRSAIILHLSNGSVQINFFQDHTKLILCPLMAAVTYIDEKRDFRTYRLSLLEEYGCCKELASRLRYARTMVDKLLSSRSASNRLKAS
T3 sequence (O75676 whole entry, the tested form may be a part): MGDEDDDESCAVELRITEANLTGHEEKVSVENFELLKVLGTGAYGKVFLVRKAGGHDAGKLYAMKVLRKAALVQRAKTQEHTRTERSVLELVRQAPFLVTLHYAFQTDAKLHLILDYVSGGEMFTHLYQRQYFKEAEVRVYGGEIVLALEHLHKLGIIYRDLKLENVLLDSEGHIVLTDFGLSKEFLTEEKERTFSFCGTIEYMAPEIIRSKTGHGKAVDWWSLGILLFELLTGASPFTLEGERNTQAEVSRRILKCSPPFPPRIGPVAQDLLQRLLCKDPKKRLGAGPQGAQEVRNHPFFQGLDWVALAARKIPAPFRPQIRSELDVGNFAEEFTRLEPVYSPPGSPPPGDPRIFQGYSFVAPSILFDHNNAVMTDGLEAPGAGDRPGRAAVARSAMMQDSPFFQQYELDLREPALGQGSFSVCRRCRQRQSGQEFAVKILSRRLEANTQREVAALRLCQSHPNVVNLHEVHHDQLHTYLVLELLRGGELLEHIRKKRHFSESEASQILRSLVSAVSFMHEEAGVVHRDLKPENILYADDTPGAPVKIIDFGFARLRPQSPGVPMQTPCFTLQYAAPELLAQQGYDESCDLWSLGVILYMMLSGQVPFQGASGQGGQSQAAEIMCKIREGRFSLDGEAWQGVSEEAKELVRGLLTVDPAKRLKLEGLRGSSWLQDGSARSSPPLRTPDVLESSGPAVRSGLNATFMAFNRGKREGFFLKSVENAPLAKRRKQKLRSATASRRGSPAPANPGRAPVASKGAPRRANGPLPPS
NEK3, sequence (P51956 whole entry): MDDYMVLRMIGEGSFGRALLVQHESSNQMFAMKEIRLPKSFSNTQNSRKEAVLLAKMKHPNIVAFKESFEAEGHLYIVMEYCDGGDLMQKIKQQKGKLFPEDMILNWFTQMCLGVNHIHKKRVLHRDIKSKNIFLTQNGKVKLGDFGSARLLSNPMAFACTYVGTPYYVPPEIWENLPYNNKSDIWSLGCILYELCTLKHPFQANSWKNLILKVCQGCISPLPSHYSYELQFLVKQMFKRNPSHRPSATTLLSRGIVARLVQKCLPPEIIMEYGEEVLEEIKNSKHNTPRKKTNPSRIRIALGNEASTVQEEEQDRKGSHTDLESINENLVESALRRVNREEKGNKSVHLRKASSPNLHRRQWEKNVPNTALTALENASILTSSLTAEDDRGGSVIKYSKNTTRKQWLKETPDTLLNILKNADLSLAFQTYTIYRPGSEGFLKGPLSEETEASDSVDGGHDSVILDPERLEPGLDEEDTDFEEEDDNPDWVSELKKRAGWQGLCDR
MST2, sequence (Q13188 whole entry): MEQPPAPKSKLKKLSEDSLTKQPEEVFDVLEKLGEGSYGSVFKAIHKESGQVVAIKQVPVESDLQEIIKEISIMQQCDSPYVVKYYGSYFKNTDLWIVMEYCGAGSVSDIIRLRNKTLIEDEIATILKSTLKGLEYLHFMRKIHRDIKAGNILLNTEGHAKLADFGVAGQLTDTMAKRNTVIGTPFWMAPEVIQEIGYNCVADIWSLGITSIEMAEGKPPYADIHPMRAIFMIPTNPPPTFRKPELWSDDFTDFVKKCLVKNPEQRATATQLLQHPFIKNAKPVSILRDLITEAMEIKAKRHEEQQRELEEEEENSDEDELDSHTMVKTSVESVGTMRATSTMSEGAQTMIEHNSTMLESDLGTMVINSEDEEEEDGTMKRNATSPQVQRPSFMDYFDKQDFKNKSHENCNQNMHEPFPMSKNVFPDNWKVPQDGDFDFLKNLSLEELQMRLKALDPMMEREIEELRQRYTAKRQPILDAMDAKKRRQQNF
BTK, sequence (Q06187 whole entry): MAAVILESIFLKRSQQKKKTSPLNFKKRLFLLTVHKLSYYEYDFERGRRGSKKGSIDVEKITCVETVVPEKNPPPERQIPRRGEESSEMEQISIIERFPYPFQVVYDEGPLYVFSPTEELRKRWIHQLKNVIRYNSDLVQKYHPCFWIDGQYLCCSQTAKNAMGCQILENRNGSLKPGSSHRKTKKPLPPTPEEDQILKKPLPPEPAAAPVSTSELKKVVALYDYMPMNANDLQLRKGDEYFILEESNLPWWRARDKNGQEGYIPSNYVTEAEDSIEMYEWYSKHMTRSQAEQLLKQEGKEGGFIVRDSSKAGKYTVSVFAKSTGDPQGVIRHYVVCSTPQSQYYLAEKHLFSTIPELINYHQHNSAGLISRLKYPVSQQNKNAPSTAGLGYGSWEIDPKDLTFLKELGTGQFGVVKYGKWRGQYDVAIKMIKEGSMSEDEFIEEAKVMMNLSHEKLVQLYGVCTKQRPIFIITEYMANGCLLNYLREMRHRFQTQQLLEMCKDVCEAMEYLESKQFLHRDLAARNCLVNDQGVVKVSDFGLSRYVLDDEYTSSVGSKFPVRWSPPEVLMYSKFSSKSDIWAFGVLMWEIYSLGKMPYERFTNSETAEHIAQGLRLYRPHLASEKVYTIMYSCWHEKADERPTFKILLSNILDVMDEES
MAP3K3, sequence (Q99759 whole entry): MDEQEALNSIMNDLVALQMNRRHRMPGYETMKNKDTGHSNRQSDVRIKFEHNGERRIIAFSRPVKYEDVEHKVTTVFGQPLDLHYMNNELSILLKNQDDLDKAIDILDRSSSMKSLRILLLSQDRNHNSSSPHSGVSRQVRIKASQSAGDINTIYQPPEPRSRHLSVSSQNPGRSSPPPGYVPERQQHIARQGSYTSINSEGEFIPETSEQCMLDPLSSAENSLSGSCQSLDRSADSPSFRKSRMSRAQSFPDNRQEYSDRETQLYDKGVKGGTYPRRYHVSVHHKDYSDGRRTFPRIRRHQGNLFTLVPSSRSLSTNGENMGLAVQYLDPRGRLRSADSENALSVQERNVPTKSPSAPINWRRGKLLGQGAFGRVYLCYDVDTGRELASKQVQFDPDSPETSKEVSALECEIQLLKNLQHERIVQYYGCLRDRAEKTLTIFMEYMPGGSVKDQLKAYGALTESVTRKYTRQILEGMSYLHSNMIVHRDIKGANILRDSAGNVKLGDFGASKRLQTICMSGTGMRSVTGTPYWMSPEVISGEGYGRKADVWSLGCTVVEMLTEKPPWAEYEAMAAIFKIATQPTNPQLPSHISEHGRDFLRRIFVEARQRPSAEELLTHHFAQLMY

How did the inhibition at 0.1 µM (MLKL; Activation Loop, read-out: Inhibition vs DMSO) turn out when `CN1CCN(Cc2ccc(Nc3ncc(Cl)c(Nc4ccccc4S(=O)(=O)N(C)C)n3)cc2)CC1` [TP-0903] was run?
The inhibition at 0.1 µM was -29%.

What about the inhibition at 0.1 µM (MLKL; [1]) of the same compound?
Its inhibition at 0.1 µM is -26.9%.

What about the inhibition at 0.1 µM (MLKL; Protein Kinase Domain, read-out: Inhibition vs DMSO) of the same compound?
Its inhibition at 0.1 µM is -65.7%.

And the inhibition at 0.1 µM (NEK3)?
The inhibition at 0.1 µM was 14.6%.

What about the “Inhibition vs DMSO” value (CDK2; Lys1) of the same compound?
Its value is 2.7%.

What about the “Inhibition vs DMSO” value (CDK2; Lys2) of the same compound?
The value was 16.8%.

What about the inhibition at 0.1 µM (MST2) of the same compound?
Its inhibition at 0.1 µM is 7.5%.

What about the inhibition at 0.1 µM (MAP3K3) of the same compound?
Its inhibition at 0.1 µM is 13%.

What about the inhibition at 0.1 µM (PLK1; [1]) of the same compound?
The inhibition at 0.1 µM was 4.9%.

And the inhibition at 0.1 µM (PLK1; [2])?
The inhibition at 0.1 µM was 0.247%.

What about the “Inhibition vs DMSO” value (BTK) of the same compound?
The value was 57.0%.

And the “Inhibition vs DMSO” value (LATS2; Lys1)?
Its value is 7.9%.

What about the “Inhibition vs DMSO” value (LATS2; Lys2) of the same compound?
The value was -14.6%.

And the inhibition at 0.1 µM (MSK2 domain1; [1])?
Its inhibition at 0.1 µM is 13.3%.

And the inhibition at 0.1 µM (MSK2 domain1; [2])?
Its inhibition at 0.1 µM is 26.8%.
